Experimental data: US11065249B2, “Diacylglycerol acyl transferase 2 inhibitor” (Pfizer Inc., priority 2019, dated 2021)

Legend:
[1] = tested on: human hepatocytes; test: High throughput determination of intrinsic clearance in human hepatocytes; assay type: in vitro ADME; conditions: high throughput human hepatocyte assay, 1 μM test compound; mean +/− Std Dev
Method: (§1) The incubation was carried out at 37° C. […] The samples were centrifuged (Eppendorf, Hauppauge, N.Y.) at 3000 rpm for 5 min at 4° C.

[2] = Determination of pKa (capillary electrophoresis, Analiza); assay type: physicochemical; conditions: most basic pKa, mean
[3] = Intrinsic clearance in human liver microsomes; assay type: in vitro ADME; conditions: 1 μM test compound, mean +/− STD Dev; for CLint (+/−STD Dev): human liver microsome assay
Method: The incubations were conducted at 37° C. […] (Sorvall R C 3C Plus, Thermo Scientific, Waltham, Mass.).

[4] = tested on: human hepatocytes; test: Intrinsic clearance in human hepatocytes (relay method); assay type: in vitro ADME; conditions: relay hepatocyte assay, 1 μM test compound, mean +/− Std Dev
Method: (§2) Cryopreserved human hepatocytes (Lot DCM from BioreclamationIVT) were used. […] At time 0 and 4 h, 25 μL of hepatocyte suspension was removed from the incubation and added to 50 μL of ice-cold acetonitrile (containing metoprolol, indomethacin, and terfenadine as internal standards) to quench the reaction. The samples were centrifuged (Eppendorf, Hauppauge, N.Y.) at 3000 rpm (1439×g) for 10 min at room temperature, and 50 μL of supernatant was transferred to a clean plate, dried completely, and reconstituted before liquid chromatography/tandem mass spectrometry (LC-MS/MS) analysis. The remaining hepatocyte suspensions in the incubation plate were centrifuged (3000 rpm, 1439×g, 10 min, room temperature). The supernatant of 300 μL was transferred to a clean 24-well plate and stored at −80° C. until the next relay experiment. For the second relay experiment, the supernatant plates were warmed first to room temperature for 30 minutes, then to 37° C. for 30 min, and hepatocytes were added to the samples to give a final cell density of 0.5 million cells/mL. The plates were incubated at 37° C. for 4 h, sampled, and processed as described above. Five relays were performed to give a total incubation time of 20 h, with sampling points at (0, 4, 8, 12, 16 and 20 h). The concentrations of test compound determined at each time point by the LC-MS/MS analysis were used to calculate the intrinsic clearance.

[5] = High throughput determination of intrinsic clearance in human hepatocytes; assay type: in vitro ADME; conditions: human, pooled cryopreserved human hepatocytes (suspension), high throughput human hepatocyte assay, 1 μM test compound; mean +/− Std Dev
Method: as §1

[6] = target: DGAT2 in human hepatocytes (Homo sapiens (Human), UniProt Q96PD7); test: Determination of IC50 values for DGAT2 inhibitors in human hepatocytes; assay type: cell-based; conditions: inhibition of DGAT2 in human hepatocytes; geometric mean
Sequence of DGAT2 in human hepatocytes (Q96PD7 whole entry): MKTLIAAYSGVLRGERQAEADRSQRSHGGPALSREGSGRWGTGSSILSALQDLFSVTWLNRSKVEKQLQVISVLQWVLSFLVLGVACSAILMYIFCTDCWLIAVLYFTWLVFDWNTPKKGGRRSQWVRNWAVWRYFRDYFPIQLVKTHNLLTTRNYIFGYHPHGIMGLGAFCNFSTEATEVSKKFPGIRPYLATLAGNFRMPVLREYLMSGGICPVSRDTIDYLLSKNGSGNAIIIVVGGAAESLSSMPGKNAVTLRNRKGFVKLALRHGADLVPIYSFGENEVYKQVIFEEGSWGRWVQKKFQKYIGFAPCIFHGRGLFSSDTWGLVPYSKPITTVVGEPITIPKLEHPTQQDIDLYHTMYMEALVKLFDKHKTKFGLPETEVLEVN
Method: For evaluation of the effects of DGAT2 inhibitors in a cell-based setting, cryopreserved human hepatocytes (Lot DOO, Celsis, Baltimore, Md.) were thawed and plated onto type I collagen-coated plates according to the manufacturer's instructions. After 18 hours overnight recovery period, the cells were overlayed with media containing 250 μg/mL Geltrex Basement Membrane Matrix (Thermo Fisher). The following day, media was aspirated and replaced with serum-free Williams Media E (Thermo Fisher) containing 400 μM sodium dodecanoate (Sigma-Aldrich, St. Louis, Mo.) and 2 mM GlutaMAX (Thermo Fisher). […] DGAT2 inhibitors were then added to the desired final concentration. After a 15 minute preincubation, 0.2 μCi [^14C(U)]-glycerol (Perkin Elmer) was added to each well followed by a 3 hour incubation. At this point the media was removed, and the cells lysed via orbital shaking in isopropyl alcohol:tetrahydrofuran (9:1) for 15 minutes prior to centrifugation at 3000 rpm for 10 minutes. Radiolabeled lipids were resolved using a solvent system by thin layer chromatography with the solvent consisting of hexanes:diethyl ether:glacial acetic acid (75:23:2, v/v/v). After separation, radiolabeled lipids were visualized using the Typhoon 9500 phosphorimaging system (GE). The half maximal inhibitory concentrations (IC50 values) were determined by nonlinear regression analysis of the % inhibition dose response curve using GraphPad Prism (GraphPad Software, Inc., La Jolla, Calif.).
Table 5 below provides the IC50 values of selected Examples for inhibition of DGAT2 in human hepatocytes in accordance with the above-described assay. Results are reported as geometric mean IC50 values, with the number of replicates (n) shown.

[7] = Intrinsic clearance in human hepatocytes (relay method); assay type: in vitro ADME; conditions: cryopreserved human hepatocytes (suspension), relay hepatocyte assay, 1 μM test compound, mean +/− Std Dev
Method: as §2

[8] = target: human DGAT2 (hDGAT2) (Homo sapiens (Human), UniProt Q96PD7); test: In vitro DGAT2 assay, determination of IC50 values for DGAT2 inhibitors; assay type: biochemical; conditions: inhibition of DGAT2, hDGAT2 membrane fractions; geometric mean
Sequence of human DGAT2 (hDGAT2) (Q96PD7 whole entry): as above
Method: Recombinant baculovirus for the FLAG-tagged hDGAT2 was generated in SF9 insect cells using Bac-to-Bac baculovirus expression system (Invitrogen) according to the manufacturer's protocol. For the expression of hDGAT2, SF9 cells (20 L) grown in Sf900II media were infected with hDGAT2 baculovirus at a multiplicity of infection of 1 in a Wave Bioreactor System 20/50P wave bag (GE Healthcare). After 40 hours of infection, the cells were then harvested by centrifugation at 5,000×g. The cell pellets were washed by resuspending in phosphate buffered saline (PBS) and collected by centrifugation at 5,000×g. The cell paste was flash frozen in liquid N2 and stored at −80° C. until needed. All operations below were at 4° C. unless otherwise noted. The cells were resuspended in lysis buffer (50 mM Tris-HCl, pH 8.0, 250 mM sucrose) including 1 mM ethylenediaminetetraacetic acid (EDTA) and the complete protease inhibitor cocktail (Roche Diagnostics) at a ratio of 3 mL buffer per 1 g cell paste. The cells were lysed by dounce homogenizer. The cell debris was removed by centrifugation at 1,000×g for 20 min, and the supernatant was centrifuged at 100,000×g for 1 hour. The resulting pellet was rinsed three times by filling ultracentrifuge tubes to the top with ice cold PBS before decanting. The washed pellet was resuspended with gentle stirring for 1 hour in lysis buffer containing 8 mM 3-[(3-cholamidopropyl)dimethylammonio]-1-propanesulfonate (CHAPS) at a ratio of 1 mL buffer per 1 g of original cell paste and centrifuged again at 100,000×g for 1 hour. The resulting supernatant was aliquotted, flash frozen in liquid N2, and stored at −80° C. until use.
To 1 μL of compounds dissolved in 100% DMSO and spotted at the bottom of each well, 5 μL of 0.04% bovine serum albumin (BSA) (fatty acid free, Sigma Aldrich) was added and the mixture was incubated at room temperature for 15 minutes. hDGAT2 membrane fractions were diluted in 100 mM Hepes-NaOH, pH 7.4, 20 mM MgCl2 containing 200 nM methyl arachidonyl fluorophosphonate (Cayman Chemical, dried from ethyl acetate stock solution under argon gas and dissolved in DMSO as 5 mM stock). 10 μL of this enzyme working solution was added to the plates and incubation continued for 2 hours at room temperature. DGAT2 reactions were initiated by the addition of 4 μL of substrates containing 30 μM [1-^14C]decanoyl-CoA (custom-synthesized by Perkin Elmer, 50 mCi/mmol) and 125 μM 1,2-didecanoyl-sn-glycerol (Avanti Polar Lipids) dissolved in 12.5% acetone. The reaction mixtures were incubated at room temperature for 40 min and the reactions were stopped by addition of 5 μL of 1% H3PO4. After the addition of 45 μL MicroScint-E (Perkin-Elmer), plates were sealed with Top Seal-A covers (Perkin-Elmer) and phase partitioning of substrates and products was achieved using a HT-91100 microplate orbital shaker (Big Bear Automation, Santa Clara, Calif.). Plates were centrifuged at 2,000×g for 1 minute in an Allegra 6R Centrifuge (Beckman Coulter) and then were sealed again with fresh covers before reading in a 1450 Microbeta Wallac Trilux Scintillation Counter (Perkin Elmer). DGAT2 activity was measured by quantifying the generated product [^14C]tridecanoylglycerol in the upper organic phase.
Inhibitors were tested at eleven different concentrations to generate IC50 values for each compound.

Row | hepatocyte CLint at 1 μM [5] [µL/min/1e6 cells] | pKa [2] | microsomal CLint at 1 μM ([3]; human, pooled human liver microsomes, pH 7.4, human liver microsome assay) [µL/min/mg] | hepatocyte CLint at 1 μM [7] [µL/min/1e6 cells] | Structure (SMILES) | CLint (+/−Std Dev) [1] | Basic pKa [2] | CLint (+/−STD Dev) [3] [µL/min/mg] | CLint (+/−Std Dev) [4] | IC50 [6] [nM] | IC50 [8] [nM]
1 | – | – | – | – | CCOc1cccnc1Oc1cncc(-c2ncc(C(=O)NC3(CO)CCOC3)cn2)c1 (single isomer, unassigned) [WO2018033832 Ex. 6a] | <3.8 +/− 1.1 μL/min/10^6 cells | 2.3 | 13 ± 2.0 | 3.2 +/− 0.21 μL/min/million cells | – | –
2 | – | – | – | – | CCOc1cccnc1Oc1cncc(-c2ncc(C(=O)NC3(CO)CCOC3)cn2)c1 (single isomer, unassigned) [WO2018033832 Ex. 6b] | <3.3 +/− 0.49 μL/min/10^6 cells | 2.4 | <11 ± 3.5 | 2.9 +/− 0.057 μL/min/million cells | – | –
3 | < 1.9 | 7.3 | < 7 | 1.9 | CCOc1cccnc1Oc1cncc(-c2ncc(C(=O)N[C@@H]3CNCC[C@H]3F)cn2)c1 [Example 5, 2-{5-[(3-Ethoxypyridin-2-yl)oxy]pyridin-3-yl}-N-[(3R,4R)-4-fluoropiperidin-3-yl]pyrimidine-5-carboxamide] | – | – | – | – | 26 | –
4 | – | – | – | – | CCOc1cccnc1Oc1cncc(-c2ncc(C(=O)N[C@H]3CCOC3)cn2)c1 [WO2018033832 Ex. 1] | <3.8 +/− 1.1 μL/min/10^6 cells | 2.4 | 11 ± 2.9 | 3.9 +/− 0.52 μL/min/million cells | 2.8 | 17
5 | – | – | – | – | CCOc1cccnc1Oc1cncc(-c2ncc(C(=O)N[C@@H]3CCOC3)cn2)c1 [WO2018033832 Ex. 2] | 4.7 +/− 0.55 μL/min/10^6 cells | 2.5 | 17 ± 1.3 | 4.9 +/− 0.17 μL/min/million cells | – | 200
